What follows are compounds tested on NL4-3 strain of HIV-1 (assay: HIV-1 replication assay: cyto-protection of MT4 cells infected with NL4-3 virus, CellTiter-Glo viability readout). Conditions: Human immunodeficiency virus 1, NL43, 120 h; concentration leading to 50% of cyto-protection; MT4 cells infected with NL4-3 virus; 5 days incubation; CellTiter-Glo; read-out: EC50.
Format: cell-based
Procedure: The antiviral activity, particularly against HIV, of compounds according to the invention is evaluated by the protocol described below.
Preparation of Virus stock of the NL4-3 strain of HIV-1 (Adachi et al, J Virol, 1986, 59(2):284-91).
The virus was prepared as described in Lopez et al (Lopez et al, Proc Natl Acad Sci USA., 2006, 103(40):14947-52, by transfecting 2×10^6 293 T cells (CRL-1573, ATCC) with following modifications: 6 μg of NL4-3 proviral DNA molecular clone were mixed with X-tremeGENE 9 DNA transfection reagent from Roche, and used according to manufacturer's instructions. Twenty four hours later, cells were washed and fresh medium added. Forty eight hours after transfection, cell supernatants were harvested, filtered through 0.45-μm-pore-size filters, quantified for HIV-1 p24 antigen by using an Innotest HIV antigen mAb assay (Ingen) according to manufacturer's instructions, and used in infection experiments.
Serial dilutions of compounds to be tested were prepared in complete RPMI medium from 10 mM DMSO stock solutions, and distributed in a volume of 20 μl in 96 well tissue-culture treated plates (Costar 3917), in order to get 0.5% DMSO final concentration in each well, after the addition of infected cells. Control wells contained also 0.5% DMSO final concentration but no compound.
MT4 cells (from the NIH AIDS Research and Reference Reagent Program) in RPMI complete medium were counted (10×10^6 cells per well in Falcon 353047 Multiwell™ 24 well) and infected for 2 hours at 37°, at a multiplicity of infection (moi) of 0.0001-0.00001. Cells were then centrifuged for 3 min at 3000 rpm, and washed two times in 1 ml PBS to remove viruses that have not entered the cells. Infected cells were resuspended in complete RPMI at 1.25×10^6 cells/ml, and 80 μl of infected cells were distributed in each well containing compounds to be tested or control wells. The plates were then incubated at 37° C. for 5 days.
Assay used to measure the inhibition of HIV replication by the compounds (according to Gregg S. Jones et al., Antimicrobial Agents and Chemotherapy, 2009, 53 (3): 1194-1203).
After 5 days of incubation, microplates were equilibrated to room temperature for 30 min and then 50 μl of CellTiter-Glo reagent (Promega Biosciences, Inc., Madison Wis., USA) were added to each well. Cell lysis was carried out at room temperature during 10 min and luminescence was read on a Fluoroskan (Thermo Scientific).
The EC50, or effective concentration 50, is the concentration of compound leading to 50% of cyto-protection in a CellTiter-Glo® viability assay based on MT4 cells infected with NL4-3 virus (table 1).

Compound | EC50 [nM]
Cc1ccc(C2CC2)c(-c2ccc3c(c2)CCCO3)c1[C@H](OC(C)(C)C)C(=O)O [Example 13, (S)-2-(tert-butoxy)-2-[3-cyclopropyl-2-(3,4-dihydro-2H-1-benzopyran-6-yl)-6-methylphenyl]acetic acid] | 8
CCc1cc(C2CC2)c(-c2ccc3c(c2)CCCO3)c(C(OC2CC2)C(=O)O)c1C (stereo not drawn) [Example 57, 2-(2-chroman-6-yl-3-cyclopropyl-5-ethyl-6-methyl-phenyl)-2-(cyclopropoxy)acetic acid] | 580
Cc1ccc(C2CC2)c(-c2ccc3c(c2)CCCO3)c1C(OCC(F)F)C(=O)O (stereo not drawn) [Example 34, (2-chroman-6-yl-3-cyclopropyl-6-methyl-phenyl)-(2,2-difluoro-ethoxy)-acetic acid] | 440
Cc1ccc(C2CC2)c(-c2ccc3c(c2C)CCCO3)c1[C@H](OC1CC1)C(=O)O (atropisomer, axis not shown) [Example 40, (S)-cyclopropoxy-[3-cyclopropyl-6-methyl-2-(5-methyl-chroman-6-yl)-phenyl]-acetic acid] | 14
Cc1ccc(C2CC2)c(-c2ccc(F)cc2)c1C(OC(C)(C)C)C(=O)O (stereo not drawn) [Example 15, 2-(tert-butoxy)-2-(6-cyclopropyl-4′-fluoro-3-methyl-biphenyl-2-yl)-acetic acid] | 340
Cc1ccc(C2CC2)c(-c2cc(F)c3c(c2C)CCCO3)c1C(OC1CC1)C(=O)O (stereo not drawn) [Example 37, cyclopropoxy-[3-cyclopropyl-2-(8-fluoro-5-methyl-chroman-6-yl)-6-methyl-phenyl]-acetic acid] | 24
Cc1ccc(C2CC2)c(-c2cc(F)c3c(c2C)CCCO3)c1[C@H](OC(C)(C)C)C(=O)O (atropisomer, axis not shown) [Example 41, (S)-tert-butoxy-[3-cyclopropyl-2-(8-fluoro-5-methyl-chroman-6-yl)-6-methyl-phenyl]-acetic acid] | 6
C=Cc1ccc(C(F)(F)F)c(C(OC(C)(C)C)C(=O)O)c1-c1ccc2c(c1)CCCO2 (stereo not drawn) [Example 9, 2-(tert-butoxy)-2-[2-(3,4-dihydro-2H-1-benzopyran-6-yl)-3-ethenyl-6-(trifluoromethyl)phenyl]acetic acid] | 500
Cc1ccc(C2CC2)c(C2=CCC(C)(C)CC2)c1C(OC(C)(C)C)C(=O)O (stereo not drawn) [Example 18, 2-(tert-butoxy)-2-[3-cyclopropyl-2-(4,4-dimethyl-cyclohex-1-enyl)-6-methyl-phenyl]acetic acid] | 19
Cc1ccc(C2CC2)c(-c2ccc3c(c2)CCCO3)c1C(OC(C)C)C(=O)O (stereo not drawn) [Example 36, (2-chroman-6-yl-3-cyclopropyl-6-methyl-phenyl)-isopropoxy-acetic acid] | 100
Cc1ccc(C2CC2)c(-c2ccc3c(c2)CCCO3)c1[C@H](OC1CC1)C(=O)O [Example 24, (S)-2-[3-cyclopropyl-2-(3,4-dihydro-2H-1-benzopyran-6-yl)-6-methylphenyl]-2-cyclopropoxyacetic acid] | 42
CC(C)(C)OC(C(=O)O)c1c(C(F)(F)F)ccc(OCc2ccccc2)c1-c1ccc2c(c1)CCCO2 (stereo not drawn) [Example 63, 2-[3-(benzyloxy)-2-(3,4-dihydro-2H-1-benzopyran-6-yl)-6-(trifluoromethyl)phenyl]-2-(tert-butoxy)acetic acid, reference compound] | 3200
Cc1ccc(C2CC2)c(-c2ccc3c(c2)CCCO3)c1C(OC(C)(C)C)C(=O)O (stereo not drawn) [Example 1, 2-(tert-butoxy)-2-[3-cyclopropyl-2-(3,4-dihydro-2H-1-benzopyran-6-yl)-6-methylphenyl]acetic acid] | 17
CCc1ccc(C(F)(F)F)c(C(OC(C)(C)C)C(=O)O)c1-c1ccc2c(c1)CCCO2 (stereo not drawn) [Example 11, 2-(tert-butoxy)-2-[2-(3,4-dihydro-2H-1-benzopyran-6-yl)-3-ethyl-6-(trifluoromethyl)phenyl]acetic acid] | 360
CCCOC(C(=O)O)c1c(C)ccc(C2CC2)c1-c1ccc2c(c1)CCCO2 (stereo not drawn) [Example 28, (2-chroman-6-yl-3-cyclopropyl-6-methyl-phenyl)-propoxy-acetic acid] | 500
Cc1ccc(C2CC2)c(-c2ccc3c(c2C)CCCO3)c1C(OC(C)(C)C)C(=O)O (stereo not drawn) [Example 16, 2-(tert-butoxy)-2-[3-cyclopropyl-6-methyl-2-(5-methyl-chroman-6-yl)-phenyl]acetic acid] | 9
Cc1ccc(C2C[C@H]2C2CC2)c(-c2ccc3c(c2)CCCO3)c1C(OC(C)(C)C)C(=O)O (stereo partly drawn) [Example 17, (trans-3-bicyclopropyl-2-yl-2-chroman-6-yl-6-methyl-phenyl)-tert-butoxy-acetic acid] | 330
Cc1ccc(C2CC2)c(-c2ccc3c(c2)CCCO3)c1C(OCC(F)(F)F)C(=O)O (stereo not drawn) [Example 30, (2-chroman-6-yl-3-cyclopropyl-6-methyl-phenyl)-(2,2,2-trifluoro-ethoxy)-acetic acid] | 860
COc1cc(C)c(C(OC2CC2)C(=O)O)c(-c2ccc3c(c2)CCCO3)c1C1CC1 (stereo not drawn) [Example 56, (2-chroman-6-yl-3-cyclopropyl-4-methoxy-6-methyl-phenyl)-cyclopropoxy-acetic acid] | 500
C=C(C)c1ccc(C)c(C(OC(C)(C)C)C(=O)O)c1-c1ccc2c(c1)CCCO2 (stereo not drawn) [Example 4, 2-(tert-butoxy)-2-[2-(3,4-dihydro-2H-1-benzopyran-6-yl)-3-isopropenyl-6-methylphenyl]acetic acid] | 34
CC(C)c1ccc(C(F)(F)F)c(C(OC(C)(C)C)C(=O)O)c1-c1ccc2c(c1)CCCO2 (stereo not drawn) [Example 10, 2-(tert-butoxy)-2-[2-(3,4-dihydro-2H-1-benzopyran-6-yl)-3-(propan-2-yl)-6-(trifluoromethyl)phenyl]acetic acid] | 84
Cc1ccc(C2CC2)c(-c2cc(F)c3c(c2C)CCCO3)c1C(OC(C)(C)C)C(=O)O (stereo not drawn) [Example 21, tert-butoxy-[3-cyclopropyl-2-(8-fluoro-5-methyl-chroman-6-yl)-6-methyl-phenyl]-acetic acid] | 14
Cc1ccc(C2CC2)c(-c2ccc3c(c2)CCCO3)c1C(OCC1CC1)C(=O)O (stereo not drawn) [Example 29, (2-chroman-6-yl-3-cyclopropyl-6-methyl-phenyl)-cyclopropyl methoxy-acetic acid] | 500
Cc1ccc(C2CC2)c(-c2cc(F)c3c(c2C)CCCO3)c1[C@H](OC1CC1)C(=O)O (atropisomer, axis not shown) [Example 44, (S)-cyclopropoxy-[3-cyclopropyl-2-(8-fluoro-5-methyl-chroman-6-yl)-6-methyl-phenyl]-acetic acid] | 17
C=C(C)c1ccc(C(F)(F)F)c(C(OC(C)(C)C)C(=O)O)c1-c1ccc2c(c1)CCCO2 (stereo not drawn) [Example 8, 2-(tert-butoxy)-2-[2-(3,4-dihydro-2H-1-benzopyran-6-yl)-3-(prop-1-en-2-yl)-6-(trifluoromethyl)phenyl]acetic acid] | 190
Cc1ccc(C2CC2)c(-c2ccc(Cl)cc2)c1C(OC(C)(C)C)C(=O)O (stereo not drawn) [Example 20, 2-(tert-butoxy)-2-(4′-chloro-6-cyclopropyl-3-methyl-biphenyl-2-yl)acetic acid] | 54
Cc1ccc(C2CC2)c(-c2ccc3c(c2C)CCCO3)c1[C@H](OC(C)(C)C)C(=O)O (atropisomer, axis not shown) [Example 38, (S)-tert-butoxy-[3-cyclopropyl-6-methyl-2-(5-methyl-chroman-6-yl)-phenyl]-acetic acid] | 3
Cc1ccc(C2CC2)c(-c2ccc3c(c2)CCCO3)c1C(OC1CCC1)C(=O)O (stereo not drawn) [Example 33, (2-chroman-6-yl-3-cyclopropyl-6-methyl-phenyl)-cyclobutoxy-acetic acid] | 450
COc1c(-c2nc3ccccc3[nH]2)cc(C(F)(F)F)c(C(OC(C)(C)C)C(=O)O)c1-c1ccc2c(c1)CCCO2 (stereo not drawn) [Example 7, 2-[4-(1H-1,3-benzodiazol-2-yl)-2-(3,4-dihydro-2H-1-benzopyran-6-yl)-3-methoxy-6-(trifluoromethyl)phenyl]-2-(tert-butoxy)acetic acid] | 62

Same assay, conditions: Human immunodeficiency virus 1, NL43, MT4, 120 h

Compound | EC50 [nM]
Cc1ccc(CC2CC2)c(-c2ccc3c(c2)CCCO3)c1C(OC(C)(C)C)C(=O)O (stereo not drawn) [Example 22, tert-Butoxy-(2-chroman-6-yl-3-cyclopropylmethyl-6-methyl-phenyl)-acetic acid] | 91
